This is an account of results in patent US5532227A, “Tetracyclines including non-antimicrobial chemically-modified tetracyclines inhibit excessive glycosylation of different types of collagen and other proteins during diabetes” (The Research Foundation of State University of New York, priority 1994, dated 1996).

Test [1] relates to skin collagen. Put plainly: Glycosylation of diabetic rat skin collagen (Example V, Table IV). In kind it is in vivo, Sprague-Dawley rat. The settings on record: 5 mg daily oral gavage, 21 days; for mM Fructosamine/mg protein (Mean ± SE): NDC 0.027, untreated diabetic 0.377; for Reduction of glycosylation in treated diabetics (%): vs untreated diabetic control. The procedure: (§1) All animals were weighed weekly.
The subcutaneous muscle layer was removed leaving essentially the dermis. The dermis (skin connective tissue) samples were minced, then homogenized in phosphate buffered saline (4° C.). Following centrifugation (at 9000 rpm, 4° C., 30 min.) of the homogenates, the supernatants were discarded. The pellets were repeatedly washed, then resuspended and extracted at 4° C. overnight in chloroform/methanol to remove lipids. The de-lipidized tissue samples were then washed in 100% methanol, then in 50% methanol. Following the methanol washes, the samples were washed with HEPES buffer (pH 7.4). The skin connective tissue samples (100 mg of each sample) were incubated at 37° C. (24 hours) with chromatographically-purified bacterial collagenase. After 24 hours the reaction mixture was centrifuged at 7000 rpm, room temperature for 30 minutes. Following centrifugation, the supernatants containing the digested collagen were collected. Aliquots of the supernatants were analyzed for glycosylated collagen using a modification of the Isolab Glyco-PROBE™ GSP assay kit. The assay is designed to measure glucose bound to protein which was then converted by Amadori rearrangement to fructosamine. For purposes of the present invention, the sample total protein was increased to compensate for low levels of glycosylated collagen compared to glycosylated serum proteins.

The subject of test [2] is serum proteins. Briefly: Serum fructosamine (glycosylated serum protein), 14 weeks doxycycline (Example II, Table III). It is filed as in vivo. The settings on record: 2 mg/rat/day oral. On the procedure:
Three groups of rats were established: a non-diabetic control group, an untreated streptozotocin-diabetic group and a streptozotocin-diabetic group treated orally with 2 mg doxycycline/rat/day over the 14-week time period. At the end of the 14 weeks, blood samples were collected from each rat arid the serum was measured for glycosylated protein using an assay which is based on the ability of glucose to non-enzymatically bind to proteins by a ketoamine crosslink to form fructosamine. During the assay, the glucose bound to the protein through a ketoamine chemical bond reduces a tetrazolium dye under alkaline conditions producing a color change which is measured spectrophotometrically. Armbruster, Clin. Chem., 33: 2153-2163 (1987). A fructosamine assay kit is available from Isolab Inc., Akron, Ohio 44321.
In particular, the serum samples were centrifuged to remove lipids. The clarified serum samples were treated with a reagent to remove ascorbic acid and other interfering substances. The treated Serum samples were then incubated for a fixed period of time, with the fructosamine-bicarbonate reagent (tetrazolium salt), and absorbance was measured at a wavelength of 500 nm in a spectrophotometer. The data was analyzed statistically.

Another test deals with serum protein. Briefly: Glycosylated serum proteins in diabetic rats (Example IV, FIG. 5). It is filed as in vivo, Sprague-Dawley rat. As to conditions: 5 mg daily oral gavage, 21 days; effect p<0.05. An excerpt:
(Control vs. Diabetic p<0.01, Diabetic vs. Diabetic treated with Doxycycline p<0.05, Diabetic vs. Diabetic treated with CMT-1 (4-dedimethyiaminotetracycline) p<0.05).
(§2) Sixteen adult male sprague-Dawley rats, each weighing approximately 350 grams, were divided into four groups 0f four animals per group.

Test [3] concerns skin collagen. Briefly: Glycosylation of skin collagen in diabetic rats, anthrone method (Example IV, FIG. 6). It is filed as in vivo, Sprague-Dawley rat. The settings on record: 5 mg daily oral gavage, 21 days; effect p<0.05. On the procedure:
as §2
In addition, the entire skin was dissected from each rat. Samples containing 100mg of each skin were suspended in a Tris-HCl buffer containing 5mM CaCl2 and chromatographically-purified bacterial collagenase and incubated at 37° C. for 4 hours. Following incubation all samples were centrifugated at 35,000×G and the supernatants containing the skin collagen fragments were collected. The skin digest supernatants were analyzed for (1) carbohydrate-attached-to-collagen by the anthrone method, as described by Halhoul and Kleinberg ([…]) Anal. Biochem. 50: 337-343 and (2) total protein using the BioRad Assay, BioRad Chemical Division, Richmond, Calif.

Test [4] deals with collagenase. Briefly: Collagenase activity in skin of diabetic rats (Example V, FIG. 8). In kind it is in vivo, Sprague-Dawley rat. The settings on record: 5 mg daily oral gavage, 21 days; p<0.001 for normalization. On the procedure:
as §1
In particular, all dissection and extraction procedures were carried out at 4° C. unless otherwise indicated. For MMP analysis, the tissues were minced, weighed, extracted, and the extracts partially purified by ammonium sulfate precipitation using techniques described previously (Ramamurthy and Golub, J. Periodontal Res. 17, 455, (1983)). The extracts of the diseased tissue were then concentrated 5-fold and aliquots were incubated (a) with [^3 H-methyl] gelatin (denatured type I rat skin collagen ) at 37° C. for 4hours to measure gelatinase activity. The undigested gelatin was precipitated with trichloroacetic acid, and after centrifugation, aliquots of the degradation products in the supernatants were measured in a liquid scintillation spectrometer (in addition to this lysis assay, the different molecular forms of gelatinase were assessed by zymography); (b) with [^3 H-methyl] collagen for 18 hours at 27° C. and the collagen degradation fragments in the supernatants were analyzed with a liquid scintillation spectrometer to measure collagenase activity. In addition, the radiolabeled collagen components (α chains) and degradation fragments (α^A) were assessed by a combination of SDS-polyacrylamide gel electrophoresis and fluorography as described previously (Golub et al. J. Periodontal Res. 20, 12 (1985).

Another test concerns gelatinase. Briefly: Gelatinase activity in skin of diabetic rats (Example V, FIG. 9). In kind it is in vivo, Sprague-Dawley rat. As to conditions: 5 mg daily oral gavage, 21 days; p<0.001 for normalization. The procedure:
as §1
In particular, all dissection and extraction procedures were carried out at 4° C. unless otherwise indicated. […] The extracts of the diseased tissue were then concentrated 5-fold and aliquots were incubated (a) with [^3 H-methyl] gelatin (denatured type I rat skin collagen ) at 37° C. for 4hours to measure gelatinase activity. The undigested gelatin was precipitated with trichloroacetic acid, and after centrifugation, aliquots of the degradation products in the supernatants were measured in a liquid scintillation spectrometer (in addition to this lysis assay, the different molecular forms of gelatinase were assessed by zymography); (b) with [^3 H-methyl] collagen for 18 hours at 27° C. and the collagen degradation fragments in the supernatants were analyzed with a liquid scintillation spectrometer to measure collagenase activity.

A further test concerns diabetic rats. As to conditions: Golub et al. 1990; cited from earlier work.
The subject of test [5] is streptozotocin-diabetic rats. Briefly: Proteinuria: urine protein excretion in diabetic rats (Example III, FIG. 4). As to conditions: 4 weeks. In kind it is in vivo, rat. On the procedure:
Example III was carried out to determine the effect of tetracycline therapy on proteinuria, a parameter of renal damage, in diabetic rats.
(§3) Streptozotocin-diabetic rats were treated by the daily oral administration of 20 mg minocycline/rat/day over a 4-week period. At the end of the protocol, 24-hour urines were collected to measure protein excretion.

In test [6] the test system is streptozotocin-diabetic rats. Briefly: Other signs of diabetes (hyperglycemia, glucosuria, polyuria) in diabetic rats (Example III). It is filed as in vivo, rat. The procedure: as §3
For test [7] the following is noted: White, Lancet 1989; cited from earlier work.
A further test has as its system collagen. As to conditions: diabetes in rats; Brownlee et al. 1986; cited from earlier work.
The conditions of test [8]: Wong et al. 1984, cited from earlier work.
The test system of test [9] is collagenase. As to conditions: in vitro (Golub, et al., 1991) and in vivo; cited from earlier work.
For test [10], the system named is serum proteins. Put plainly: Glycosylated serum protein (GSP) in diabetic rats (Example V, FIG. 7). The settings on record: 5 mg daily oral gavage, 21 days; vs untreated diabetics, p<0.005.
Experimental: Fifty-two adult male Sprague-Dawley rats were divided into eight groups, each consisting of 5-7 animals. Diabetes was induced by I.V. administration of streptozotocin in all rats, except the non-diabetic control group (7 rats). […] All animals were weighed weekly. Following general anesthesia by halothane inhalation, blood samples were collected by cardiac puncture. Blood samples were analyzed for serum glucose and glycosylated serum protein (GSP) levels. As previously mentioned, glycosylated serum protein levels were measured using the Isolab Glyco-PROBE™ GSP (glycosylated serum protein) assay kit.

Regarding `NC(=O)C1=C(O)C2(O)C(=O)C3=C(O)c4c(O)cccc4CC3CC2CC1=O` (stereo not drawn) [CMT-3, 6-demethyl-6-deoxy-4-dedimethylaminotetracycline], in the test on skin collagen [1], the “mM Fructosamine/mg protein (Mean ± SE)” value was 0.186 ± 0.048 mM Fructosamine/mg protein and the “Reduction of glycosylation in treated diabetics (%)” value (from here on “Reduction of glycosylation … (%)”) was 50.7%.
Regarding `CC1(O)c2c(Cl)ccc(O)c2C(=O)C2=C(O)C3(O)C(=O)C(C(N)=O)=C(O)CC3CC21` (stereo not drawn) [CMT-4, 7-chloro-4-dedimethylaminotetracycline], in the test on skin collagen [1], the “mM Fructosamine/mg protein (Mean ± SE)” value is reported as 0.236 ± 0.026 mM Fructosamine/mg protein and the “Reduction of glycosylation … (%)” value is reported as 37.4%.
Taken in the same sequence, the figures for `CC1(O)c2cccc(O)c2C(O)=C2C(=O)C3C(O)=C(C(N)=O)C(=O)CC3CC21` (stereo not drawn) [CMT-7, 12a-deoxy-4-deoxy-4-dedimethylaminotetracycline] were 0.141 ± 0.086 mM Fructosamine/mg protein and 62.6%.
Turning to `C[C@H]1c2cccc(O)c2C(O)=C2C(=O)[C@]3(O)C(O)=C(C(N)=O)C(=O)C[C@@H]3[C@@H](O)[C@@H]21` [CMT-8, 6α-deoxy-5-hydroxy-4-dedimethylaminodoxycycline], in the test with skin collagen [1], the “mM Fructosamine/mg protein (Mean ± SE)” value is given as 0.118 ± 0.090 mM Fructosamine/mg protein and the “Reduction of glycosylation … (%)” value was 68.7%.
For `C[C@H]1c2cccc(O)c2C(O)=C2C(=O)[C@]3(O)C(O)=C(C(N)=O)C(=O)[C@@H](N(C)C)[C@@H]3[C@@H](O)[C@@H]21` [Doxycycline, reference compound], the “Serum Fructosamine Concentration” value with serum proteins [2] (mean ± standard error, non-diabetic 1.33, untreated diabetics 3.82) was determined as 3.23 ± 0.20. In the test with serum proteins [2] (vs untreated diabetics, p<0.05), the “fructosamine levels in the serum proteins” value was “significantly (p<0.05) reduced”. For the same compound, the “fructosamine attached to serum protein (glycosylated serum protein)” value in the test with serum protein was “returned both of these parameters of abnormal glycosylation to essentially normal levels”. The “glycosylation of skin collagen” value in the test on skin collagen [3] was “returned both of these parameters of abnormal glycosylation to essentially normal levels”. Further, in the test on skin collagen [1], the “mM Fructosamine/mg protein (Mean ± SE)” value was 0.244 ± 0.050 mM Fructosamine/mg protein and the “Reduction of glycosylation … (%)” value came out at 35.3%. Besides, the “collagenase activity in the skin” value in the test on collagenase [4] was “normalized”. Besides, in the test on gelatinase, the “gelatinase activity in the skin” value was “normalized”. Moreover, the severity of hyperglycemia result in the test on diabetic rats is listed as “does not reduce the severity of hyperglycemia in diabetic rats”.
The compound `CN(C)c1ccc(O)c2c1C[C@H]1C[C@H]3[C@H](N(C)C)C(O)=C(C(N)=O)C(=O)[C@@]3(O)C(O)=C1C2=O` [Minocycline] came in with a urine protein excretion in test [5] (20 mg minocycline/rat/day oral, normal 48, untreated diabetics 280) of 52 mg/24 hr. Further, the development of proteinuria result in [5] (20 mg/rat/day oral) was “completely prevented the development of proteinuria”. In test [6], the “other signs of diabetes including hyperglycemia, glucosuria and polyuria” value is recorded as “Neither treatment with minocycline nor CMT-1 reduced the other signs of diabetes”. Moreover, in test [7], the “effectiveness in dystrophic epidermolysis bullosa” value is reported as “effective in treating dystrophic epidermolysis bullosa”.
For `N=C(N)NN` [aminoguanidine], the “inhibition of nonenzymatic glucose-derived collagen crosslinking” value with collagen was “effective inhibitor”.
For the compound `CC(C)Cc1ccc(C(C)C(=O)O)cc1` (stereo not drawn) [ibuprofen], the “reduction of resulting inflammation in acne vulgaris” value in test [8] (combination study with tetracycline) is “useful in reducing the resulting inflammation”.
In the case of `CN(C)C1C(=O)C(C(N)=O)=C(O)C2(O)C(=O)C3=C(O)c4c(O)cccc4C(C)(O)C3CC12` (stereo not drawn) [tetracycline], the “effectiveness against acne vulgaris” value in test [8] (combination study with ibuprofen) is recorded as “effective agent against acne vulgaris”.
Turning to tetracycline pyrazole [CMT-5], in the test on skin collagen [1], the “mM Fructosamine/mg protein (Mean ± SE)” value is given as 0.121 ± 0.050 mM Fructosamine/mg protein and the “Reduction of glycosylation … (%)” value is given as 69.9%. For the same compound, the “collagenase activity in the skin” value with collagenase [4] is “normalized by all treatment groups (p<0.001) with the exception of CMT 5”. For the same compound, in the test with gelatinase, the “gelatinase activity in the skin” value is “normalized by all treatment groups (p<0.001) with the exception of CMT 5”. Further, in the test on collagenase [9], the anticollagenase properties entry was “lost its anticollagenase properties”. Also, the GSP levels entry with serum proteins [10] is on record as “substantially lower”.
